pIC50, pKd: −log10 of the molar value.

What is called pIC50 is the IC50 on a negative log10 scale, so that one unit is a factor of ten. One may read the pKd as −log10 of the Kd, conventionally taken in molar units.

Assay [1] concerns the target T1, Avi-KRAS WT (1-169) GppNHp/RAF1 RBD-3xFLAG (52-151) (Homo sapiens, UniProt P01116).
T1 construct: 50 nM Avi-KRAS WT (1-169) GppNHp
Kind of assay: RAS-effector PPI HTRF disruption assay, Raf1-GppNHp-KRAS WT. It counts as biochemical. The essentials: (§1)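 Each effector pair was tested at its own level (PI3KCA–G12D/Q25A at 375 nM, RAF1 RBD with G12D at 100 nM, and RAF1 RBD with G12V or WT at 50 nM) against compound dilutions from 100 μM down to 0.02 μM. Time-resolved fluorescence after two 1 h room-temperature steps gave IC50 values normalised to DMSO.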

Assay [2] deals with pERK in GP2d cells (KRAS G12D). Kind of assay: Cell-based pERK HTRF assay in GP2d cell. To be noted: GP2d, 1 h, 60 min incubation. The method, boiled down: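 Phospho-ERK was measured by HTRF in lysates of KRAS G12D GP2d cells after 60 min of compound exposure. Nine concentrations were tested, half-log apart from a 1 μM top, with 0.25% DMSO throughout. Cells had been plated the previous day in DMEM with 10% FBS, and the detection antibodies were incubated 4–24 h at room temperature before reading.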
Background: TR-FRET usually uses a lanthanide donor and a delayed reading to cut background.

In assay [3] the target is T2, Avi-KRAS G12V (1-169) GppNHp/RAF1 RBD-3xFLAG (52-151) (Homo sapiens, UniProt P01116, G12V).
T2 construct: 50 nM Avi-KRAS G12V (1-169) GppNHp
T2 sequence (P01116 1-169 isoform P01116-2 G12V): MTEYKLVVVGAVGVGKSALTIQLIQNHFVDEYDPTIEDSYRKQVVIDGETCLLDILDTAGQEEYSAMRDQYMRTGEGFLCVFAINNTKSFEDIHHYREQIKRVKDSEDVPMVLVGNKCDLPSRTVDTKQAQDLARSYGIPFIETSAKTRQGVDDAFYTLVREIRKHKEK
Kind of assay: RAS-effector PPI HTRF disruption assay, Raf1-GppNHp-KRAS G12V. It counts as biochemical. The method, boiled down: as §1

Assay [4] deals with T3, Avi-KRAS G12D (1-169) GppNHp/RAF1 RBD-3xFLAG (52-151) (Homo sapiens, UniProt P01116, G12D).
T3 construct: 100 nM Avi-KRAS G12D (1-169) GppNHp
T3 sequence (P01116 1-169 isoform P01116-2 G12D): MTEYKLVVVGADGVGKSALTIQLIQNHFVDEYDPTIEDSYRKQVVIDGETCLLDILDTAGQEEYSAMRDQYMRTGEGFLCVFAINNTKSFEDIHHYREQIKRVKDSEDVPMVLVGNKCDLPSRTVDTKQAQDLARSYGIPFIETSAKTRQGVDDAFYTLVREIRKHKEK
Put plainly: RAS-effector PPI HTRF disruption assay, Raf1-GppNHp-KRAS G12D. Format: biochemical. The method, boiled down:
as §1

A further assay deals with GppNHp KRAS G12D (Homo sapiens, UniProt P01116, G12D). Put plainly: SPR binding affinity to GppNHp KRAS G12D (Biacore S200). To be noted: GppNHp-loaded KRAS G12D, steady state KD. The protocol:
(§2) The affinity of compounds of the present disclosure to RAS ligands was assessed using surface plasmon resonance (SPR) binding analysis using a Biacore S200 (GE Healthcare Life Sciences) instrument. The SPR binding analysis employed the following reagents and protocols:
(§3) Buffer preparation: To make 0.5 L add required amounts of stocks for: 20 mM Hepes, 150 mM NaCl, 5 mM MgCl2, 1 mM TCEP, 0.05% P20, and 5 μM nucleotide. Adjust pH to 7.4, then bring volume up to 475 mL 1.05×Filter through 0.2 μm cellulose acetate membrane. Remove a volume of buffer as No DMSO Buffer 1.05× and set aside. Add appropriate volume of DMSO to buffer to a final concentration 5% DMSO.
(§4) Chip preparation: Prime 2× with 5% DMSO buffer. Allow system to flow on standby throughout the day.
(§5) Sample preparation: Make a 20× compound solution in 100% DMSO of highest compound concentration to be screened (2 mM for final 100 μM compound). Add appropriate volume of 1.05× buffer without DMSO to give 5% DMSO and mix by pipetting. Centrifuge sample 18,000×g 5 min 25° C. Make appropriate serial dilutions from the highest concentration into 5% DMSO running buffer for the concentrations needed. Prepare 5.8% DMSO and 4.5% DMSO solvent correction solutions using buffer without DMSO. Make two more solvent corrections by mixing 200 μL 4.5% 500 μL 5.8%, and 400 μL 4.5% 300 μL 5.8%
(§6) Capture Avi-taggedprotein: Thaw protein stock on ice, aliquot into single use size and freeze at −80° C. for future use. Dilute protein (avi-KRAS WT, avi-KRAS-G12D, avi-KRAS-G12V, or avi-RhoA) appropriately, to 20 μg/mL to begin in 5% DMSO buffer. Manually inject at 10 μL/min 12 second contact time. Adjust flow and or contact time to achieve desired level of captured protein. When desired level of protein is captured, flow for 10 minutes to stabilize signal.
(§7) General Binding Level Screen Method: Choose LMW screen template in Fragment/LMW subfolder in Binding screen folder. 30 μL/min high performance injection, 60 sec contact and dissociation time, carry over control, extra wash with 50% DMSO for each injection. Fifteen Startup cycles to condition. Control samples before and after compound samples. For GppNHp loaded KRAS, control is 20 μM Raf1 RBD domain. Adjust this sample to final 5% DMSO to match running buffer. This process is performed at a temperature of 25° C. using a single chip per experiment.
(§8) Binding affinity determination: Compounds selected from the binding level screen are evaluated in a dose response to determine the binding affinity (KD). Serial dilutions of compounds are prepared and injected over the sensor chip using a flow rate of 30 μL/min with a 60 second contact and dissociation time. After double referencing of the sensorgrams the total level of compound binding at each concentration is calculated. The steady state binding affinity is calculated with a Langmuir binding model assuming a 1:1 interaction with a constrained Rmax using the BIAevaluation software.
For orientation: In SPR one partner is held on a chip, and binding of the other changes the refractive index at the surface.

For a further assay, the target named is GDP KRAS G12D (Homo sapiens, UniProt P01116, G12D). Put plainly: SPR binding affinity to GDP KRAS G12D (Biacore S200). The note with it: GDP-loaded KRAS G12D, steady state KD. How it is done:
as §2, §3, §4, §5, §6, §7, §8

Assay [5] concerns the target T4, Avi-KRAS G12D/Q25A (1-169) GppNHp/3xFLAG-PI3KCA (157-299) (Homo sapiens, UniProt P01116, G12D/Q25A).
T4 construct: 375 nM Avi-KRAS G12D/Q25A (1-169) GppNHp
Put plainly: RAS-effector PPI HTRF disruption assay, PI3KCA-GppNHp-KRAS G12D/Q25A. It counts as biochemical. The essentials: as §1

T1 sequence (P01116 1-169 isoform P01116-2): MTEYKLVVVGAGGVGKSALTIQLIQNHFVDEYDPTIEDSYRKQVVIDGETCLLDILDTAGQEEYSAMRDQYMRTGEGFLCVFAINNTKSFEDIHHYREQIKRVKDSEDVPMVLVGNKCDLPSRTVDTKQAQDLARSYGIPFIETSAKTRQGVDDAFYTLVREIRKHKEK
T4 sequence (P01116 1-169 isoform P01116-2 G12D/Q25A): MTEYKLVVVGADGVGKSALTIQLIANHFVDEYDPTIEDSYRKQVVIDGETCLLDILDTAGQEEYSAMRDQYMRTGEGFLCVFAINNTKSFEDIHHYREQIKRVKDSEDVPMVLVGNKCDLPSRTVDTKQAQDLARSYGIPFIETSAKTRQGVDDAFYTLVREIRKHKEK
GppNHp KRAS G12D, sequence (P01116 1-188 isoform P01116-2 G12D): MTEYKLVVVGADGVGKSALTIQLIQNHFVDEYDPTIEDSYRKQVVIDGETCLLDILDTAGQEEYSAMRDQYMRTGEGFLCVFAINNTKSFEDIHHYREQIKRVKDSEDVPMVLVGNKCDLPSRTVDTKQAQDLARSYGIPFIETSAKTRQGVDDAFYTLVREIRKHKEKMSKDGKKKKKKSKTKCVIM
GDP KRAS G12D, sequence (P01116 1-188 isoform P01116-2 G12D): as above

Take `Nc1nc2c(-c3c(C(F)(F)F)cc4c(O[C@H]5CNC[C@@H]5F)nc(OC[C@@]56CCCN5C[C@H](F)C6)nc4c3F)ccc(F)c2s1` (atropisomer, axis not shown) [Compound 17]: the pIC50 in assay [1] is 5.00 to 6.00; in assay [2] it was 6.00 to 7.00; in assay [3], 5.00 to 6.00; in assay [4] it was 6.00 to 7.00; in assay [5], 6.00 to 7.00. Besides, the pKd at GppNHp KRAS G12D was 6.00 to 7.00; on GDP KRAS G12D, no less than 7.00.

As for `Nc1nc2c(-c3c(C(F)(F)F)cc4c(O[C@H]5CNC[C@@H]5F)nc(OC[C@@]56CCCN5C[C@H](F)C6)nc4c3F)ccc(F)c2s1` (atropisomer, axis not shown) [Compound 18], the negative logarithm of the IC50 (pIC50) in assay [1], in assay [3], in assay [4] and in assay [5] was less than 5.00 each time. Besides, the negative-log Kd (pKd) on GppNHp KRAS G12D is less than 5.00; on GDP KRAS G12D, 6.00 to 7.00.

As for `C[C@@H]1C[C@@H](Oc2nc(OC[C@@]34CCCN3C[C@H](F)C4)nc3c(F)c(-c4ccc(F)c5sc(N)nc45)c(C(F)(F)F)cc23)CN1` (atropisomer, axis not shown) [Compound 20], the pIC50 was 5.00 to 6.00 in assay [1]; no less than 7.00 in assay [2]; 5.00 to 6.00 in assay [3]; 6.00 to 7.00 in assay [4]; 5.00 to 6.00 in assay [5]. For the same molecule, the negative logarithm of the Kd (pKd) at GppNHp KRAS G12D was 6.00 to 7.00; on GDP KRAS G12D it was no less than 7.00.

For the molecule `C[C@@H]1C[C@@H](Oc2nc(OC[C@@]34CCCN3C[C@H](F)C4)nc3c(F)c(-c4ccc(F)c5sc(N)nc45)c(C(F)(F)F)cc23)CN1` (atropisomer, axis not shown) [Compound 21], the pIC50 in assay [1], in assay [3], in assay [4] and in assay [5] was less than 5.00 each time. The pKd on GppNHp KRAS G12D is less than 5.00; on GDP KRAS G12D it was 5.00 to 6.00.

`C[C@H]1C[C@@H](Oc2nc(OC[C@@]34CCCN3C[C@H](F)C4)nc3c(F)c(-c4ccc(F)c5sc(N)nc45)c(C(F)(F)F)cc23)CN1` [Compound 7]: the pIC50 was 5.00 to 6.00 in assay [1]; no less than 7.00 in assay [2]; less than 5.00 in assay [3]; 6.00 to 7.00 in assay [4]; 5.00 to 6.00 in assay [5]. This molecule also had a pKd at GppNHp KRAS G12D of 5.00 to 6.00.

With `C[C@H]1NCCC1Oc1nc(OC[C@@]23CCCN2C[C@H](F)C3)nc2c(F)c(-c3ccc(F)c4sc(N)nc34)c(C(F)(F)F)cc12` (some centres unmarked) [Compound 19], the pIC50 in assay [1] is 6.00 to 7.00; in assay [2] it was no less than 7.00; in assay [3], 5.00 to 6.00; in assay [4] it was 6.00 to 7.00; in assay [5] it was 6.00 to 7.00. Also, the figures for the pKd on GppNHp KRAS G12D and on GDP KRAS G12D were 6.00 to 7.00 and no less than 7.00, respectively.

Consider `Nc1nc2c(-c3c(C(F)(F)F)cc4c(OC5CC6CC[C@H](C5)N6)nc(OCC56CCCN5CCC6)nc4c3F)ccc(F)c2s1` (some centres unmarked) [Compound 26], for which the negative-log IC50 (pIC50) in assay [1] was no less than 7.00; in assay [2], less than 6.00; in assay [3] it was 5.00 to 6.00; in assay [4] it was no less than 7.00; in assay [5], 6.00 to 7.00. Further, the pKd at GppNHp KRAS G12D and at GDP KRAS G12D was no less than 7.00 in each case.

As for `N#Cc1c(N)sc2c(F)ccc(-c3ccc4c(O[C@H]5CNC[C@H]5F)nc(OC[C@@]56CCCN5C[C@H](F)C6)nc4c3F)c12` [Compound 66], the pIC50 was 5.00 to 6.00 in assay [1]; 6.00 to 7.00 in assay [2]; less than 5.00 in assay [3]; 5.00 to 6.00 in assay [4]; 5.00 to 6.00 in assay [5].

Turning to `N#Cc1c(N)sc2c(F)ccc(-c3c(C(F)(F)F)cc4c(O[C@@H]5CCNC5)nc(N5CC(N6CC7(CC7)C6)C5)nc4c3F)c12` [Compound 67], the pIC50 in assay [1] was 6.00 to 7.00; in assay [2], 6.00 to 7.00; in assay [3], 5.00 to 6.00; in assay [4] it was 6.00 to 7.00; in assay [5] it was less than 5.00.

With `N#Cc1c(N)sc2c(F)ccc(-c3c(Cl)cc4c(O[C@@H]5CN[C@H](CO)C5)nc(OC[C@@]56CCCN5C[C@H](F)C6)nc4c3F)c12` [Compound 70], the pIC50 in assay [1] is 6.00 to 7.00; in assay [2], 6.00 to 7.00; in assay [3], 6.00 to 7.00; in assay [4], no less than 7.00; in assay [5], 6.00 to 7.00.

For the molecule `N#Cc1c(N)sc2c(F)ccc(-c3ccc4c(O[C@H]5CNC[C@@H]5F)nc(OC[C@@]56CCCN5C[C@H](F)C6)nc4c3F)c12` [Compound 71], the pIC50 in assay [1] is 5.00 to 6.00; in assay [2] it was less than 6.00; in assay [3], less than 5.00; in assay [4], 5.00 to 6.00; in assay [5], 5.00 to 6.00.

As to `C[C@H]1NCC[C@@H]1Oc1nc(OC[C@@]23CCCN2C[C@H](Cl)C3)nc2c(F)c(-c3ccc(F)c4sc(N)c(C#N)c34)c(C(F)(F)F)cc12` [Compound 72], the negative logarithm of the IC50 (pIC50) in assay [1] is no less than 7.00; in assay [2] it was no less than 7.00; in assay [3] it was 6.00 to 7.00; in assay [4] it was no less than 7.00; in assay [5] it was 6.00 to 7.00.

Regarding `N#Cc1c(N)sc2c(F)ccc(-c3c(F)cc4c(O[C@@H]5CCNC5)nc(OC[C@@]56CCCN5C[C@H](F)C6)nc4c3F)c12` [Compound 77], the pIC50 in assay [1] was less than 5.00; in assay [2] it was less than 6.00; in assay [3] it was less than 5.00; in assay [4], less than 5.00; in assay [5] it was less than 5.00.

In the case of `N#Cc1c(N)sc2c(F)ccc(-c3ncc4c(O[C@@H]5CCNC5)nc(OC[C@@]56CCCN5C[C@H](F)C6)nc4c3F)c12` [Compound 97], the negative logarithm of the IC50 (pIC50) in assay [1] is 5.00 to 6.00; in assay [2], 6.00 to 7.00; in assay [3], less than 5.00; in assay [4], 5.00 to 6.00; in assay [5] it was less than 5.00.

`C[C@H]1NCC[C@H]1Oc1nc(OC[C@@]23CCCN2C[C@H](F)C3)nc2c(F)c(-c3ccc(F)c4sc(N)c(C#N)c34)ncc12` [Compound 98, 2-amino-7-fluoro-4-(8-fluoro-2-(((2R,7aS)-2-fluorotetrahydro-1H-pyrrolizin-7a(5H)-yl)methoxy)-4-(((2R,3R)-2-methylpyrrolidin-3-yl)oxy)pyrido[4,3-d]pyrimidin-7-yl)benzo[b]thiophene-3-carbonitrile]: the pIC50 in assay [1] was 5.00 to 6.00; in assay [2] it was 6.00 to 7.00; in assay [3] it was 5.00 to 6.00; in assay [4], 5.00 to 6.00; in assay [5] it was less than 5.00.
